Source: patent US20230286973A1, “PROTEIN SECRETION INHIBITORS” (KEZAR LIFE SCIENCES, priority 2020, published 2023)
Read-outs that look alike come from different tables or passages of the source.

Key:
[1] = test system: multiple myeloma cell line U266B1; assay: U266 Cell Viability Assay; type: cell-based, human; conditions: Homo sapiens, U-266, 48 h, U266B1 cells, Celltiter-Glo
In short: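 CellTiter-Glo luminescence was read after a 48 h compound exposure (37 °C, 5% CO2) of human U266B1 myeloma cells grown in 10% FBS-supplemented RPMI 1640. Data for structures shown without defined stereochemistry refer to stereoisomer mixtures.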

[2] = test system: IL-2-FL/Gaussia Luciferase; assay: Dox Induced IL2-FL-Gluc Assay; type: cell-based; conditions: for IC50: 24 hr Dox induction, 293FRT/TO cells, read-out: 24 hr Dox Inducible IL2FLGluc 293FRT/TO: Mean IC50; for 24 hr Dox Inducible IL2FLGluc 293FRT/TO: IL2/PD1: ratio of IL2FLGluc IC50 to PD1ssGluc IC50
In short: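 Compounds in DMSO/medium with doxycycline were applied to a 293 T-REx stable line expressing an IL-2 (aa 1-153)–Gaussia luciferase fusion under tetracycline-regulated control, cells seeded one day earlier; incubation at 37 °C, 5% CO2. Structures drawn without stereochemistry were tested as stereoisomer mixtures.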

[3] = test system: multiple myeloma cell line NCI-H929; assay: H929 Cell Viability Assay; type: cell-based, human; conditions: Homo sapiens, NCI-H929, 48 h, NCI-H929 cells, Celltiter-Glo
In short: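 Luminescent CellTiter-Glo read-out of viability after a 48 h exposure (37° C, 5% CO2) of NCI-H929 myeloma cells to compound dilutions in RPMI 1640 plus 10% FBS. Data for structures drawn without stereochemistry refer to stereoisomer mixtures.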

[4] = Liver Microsome Stability Assay (mouse); conditions: mouse liver microsomes, with NADPH, 1.0 uM compound
Description: (§1) Stability of a compound was assessed in the presence of liver microsomes from various sources—mouse, rat, monkey and human liver microsomes. 1.0 uM compound, 0.4% DMSO in 0.1 M Potassium Phosphate with 1.0 mg/mL liver microsomes, were incubated at 37° C. with or without 1 mM NADPH. The samples were quenched at 0, and 30 minutes.

[5] = Liver Microsome Stability Assay (rat); conditions: rat liver microsomes, with NADPH, 1.0 uM compound
Description: as §1

[6] = Liver Microsome Stability Assay (monkey); conditions: monkey liver microsomes, with NADPH, 1.0 uM compound
Description: as §1

[7] = test system: HER3-ss+4aa/Gaussia Luciferase; assay: Dox-Induced Her3-ss-Gluc Assay; type: cell-based; conditions: 24 hr Dox induction, 293FRT/TO cells, read-out: 24 hr Dox Inducible Her3(ss + 4)Gluc 293FRT/TO: Mean IC50
In short: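 Compounds were diluted in DMSO/media containing doxycycline. They were added to Flp-In 293 T-REx cells plated the previous day, then incubated at 37 °C under 5% CO2. These cells stably express, under T-REx control, Gaussia luciferase fused to the HER3 signal sequence plus 4 amino acids.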

[8] = test system: PD1-ss+10aa/Gaussia Luciferase; assay: Dox-Induced PD1-ss-Gluc Assay; type: cell-based; conditions: 24 hr Dox induction, 293FRT/TO cells, read-out: 24 hr Dox Inducible PD1ssGluc 293FRT/TO: Mean IC50
In short: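 Stable Flp-In 293 T-REx cells carried a doxycycline-inducible construct of Gaussia luciferase fused to the PD1 signal sequence plus 10 amino acids. Cells were plated the day before, then treated with compound dilutions in DMSO/media containing doxycycline at 37 °C, 5% CO2.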

[9] = test system: TNFα-FL/Gaussia Luciferase; assay: Dox Induced TNFα-FL-Gluc Assay; type: cell-based; conditions: for IC50: 24 hr Dox induction, 293FRT/TO cells, read-out: 24 hr Dox Inducible TNFaFLGluc 293FRT/TO: Mean IC50; for 24 hr Dox Inducible TNFaFLGluc 293FRT/TO: TNF/PD1: ratio of TNFaFLGluc IC50 to PD1ssGluc IC50
In short: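 Compound was added with doxycycline to cells plated a day earlier, incubating at 37° C under 5% CO2. The reporter line is 293 T-REx expressing a TNFα (1-233)–Gaussia luciferase fusion under tetracycline-regulated control.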

[10] = Liver Microsome Stability Assay (human); conditions: human liver microsomes, with NADPH, 1.0 uM compound
Description: as §1

[11] = '<=>' given where both are I.A.

Compound | EC50 [1] | IC50 [2] | 24 hr Dox Inducible IL2FLGluc 293FRT/TO: IL2/PD1 [2] | EC50 [3] | Liver Microsome Stability (Multiple Species): Mouse - % Remaining after 30 min w/NADPH [4] | Liver Microsome Stability (Multiple Species): Rat - % Remaining after 30 min w/NADPH [5] | Liver Microsome Stability (Multiple Species): Monkey - % Remaining after 30 min w/NADPH [6] | IC50 [7] | IC50 [8] | IC50 [9] | 24 hr Dox Inducible TNFaFLGluc 293FRT/TO: TNF/PD1 [9] | Liver Microsome Stability (Multiple Species): Human - % Remaining after 30 min w/NADPH [10] | IC50 ([2]; mean) | 24 hr Dox Inducible IL2FLGluc 293FRT/TO: IL2/PD1 [2, 11] | IC50 ([7]; mean) | IC50 ([8]; mean) | IC50 ([9]; mean) | 24 hr Dox Inducible TNFaFLGluc 293FRT/TO: TNF/PD1 [9, 11]
C[C@H](O)c1ccc(N2CCC[C@@H]2c2csc(NC(=O)c3cccn3Cc3ccnc(F)c3)n2)cc1 [Compound A112, 1-((2-fluoropyridin-4-yl)methyl)-N-(4-((R)-1-(4-((S)-1-hydroxyethyl)phenyl)pyrrolidin-2-yl)thiazol-2-yl)-1H-pyrrole-2-carboxamide] | > 25 µM | 0.00864 µM | 2.3 | 0.408 µM | 5.81% | 6.03% | 0.35% | 0.00598 µM | 0.00381 µM | 0.04 µM | 10.5 | 3.41% | – | – | – | – | – | –
CC(=O)N1CCC(Oc2cc(F)c(N3CCC[C@@H]3c3csc(NC(=O)c4cccn4Cc4ccnc(F)c4)n3)c(F)c2)CC1 [Compound A105, (R)-N-(4-(1-(4-((1-acetylpiperidin-4-yl)oxy)-2,6-difluorophenyl)pyrrolidin-2-yl)thiazol-2-yl)-1-((2-fluoropyridin-4-yl)methyl)-1H-pyrrole-2-carboxamide] | > 25 µM | 0.0658 µM | 1.2 | 1.03 µM | 1.29% | 16.9% | 0.98% | 0.0917 µM | 0.0536 µM | 0.524 µM | 9.81 | 0.87% | – | – | – | – | – | –
CC(=O)N1CCC(Cc2ccc(N3CCC[C@@H]3c3csc(NC(=O)c4cccn4Cc4ccnc(F)c4)n3)cc2)CC1 [Compound A160, (R)-N-(4-(1-(4-((1-acetylpiperidin-4-yl)methyl)phenyl)pyrrolidin-2-yl)thiazol-2-yl)-1-((2-fluoropyridin-4-yl)methyl)-1H-pyrrole-2-carboxamide] | > 25 µM | 0.096 µM | 2 | 2.67 µM | 6.28% | 16.8% | 0.18% | 0.0824 µM | 0.0481 µM | 0.691 µM | 14.3 | 0.66% | – | – | – | – | – | –
N#CCc1ccccc1Cn1cccc1C(=O)Nc1nc([C@H]2CCCN2c2ccccc2)cs1 [Compound C93, (R)-1-(2-(cyanomethyl)benzyl)-N-(4-(1-phenylpyrrolidin-2-yl)thiazol-2-yl)-1H-pyrrole-2-carboxamide] | > 25 µM | – | – | > 25 µM | 16.3% | 1.23% | 6.79% | – | – | – | – | 3.12% | 1.63 µM | 0.38 | 1.08 µM | 4.27 µM | > 25 µM | >5.86
